Data set [1] has as its target Epidermal growth factor receptor (Homo sapiens, UniProt P00533). In kind it is ADME, cell-based, Sf21.
Description: Inhibition of human N-terminal GST-tagged EGFR kinase domain (696 to end residues) expressed in baculovirus infected sf21 cells using poly(Glu, Tyr) 4:1 as substrate
The target of data set [2] is Epidermal growth factor receptor (Homo sapiens, UniProt P00533, L858R/T790M). Nature of the data set: biochemical. In kind it is cell-based, Sf21.
Data set [3] deals with Receptor tyrosine-protein kinase erbB-2 (Homo sapiens, UniProt P04626). The experiment in a line: Inhibition of human C-terminal His6-tagged ERBB2 (676 to end residues) expressed in baculovirus infected sf21 cells using poly(Glu, Tyr) 4:1 as substrate.
Receptor tyrosine-protein kinase erbB-2, sequence (P04626 whole entry): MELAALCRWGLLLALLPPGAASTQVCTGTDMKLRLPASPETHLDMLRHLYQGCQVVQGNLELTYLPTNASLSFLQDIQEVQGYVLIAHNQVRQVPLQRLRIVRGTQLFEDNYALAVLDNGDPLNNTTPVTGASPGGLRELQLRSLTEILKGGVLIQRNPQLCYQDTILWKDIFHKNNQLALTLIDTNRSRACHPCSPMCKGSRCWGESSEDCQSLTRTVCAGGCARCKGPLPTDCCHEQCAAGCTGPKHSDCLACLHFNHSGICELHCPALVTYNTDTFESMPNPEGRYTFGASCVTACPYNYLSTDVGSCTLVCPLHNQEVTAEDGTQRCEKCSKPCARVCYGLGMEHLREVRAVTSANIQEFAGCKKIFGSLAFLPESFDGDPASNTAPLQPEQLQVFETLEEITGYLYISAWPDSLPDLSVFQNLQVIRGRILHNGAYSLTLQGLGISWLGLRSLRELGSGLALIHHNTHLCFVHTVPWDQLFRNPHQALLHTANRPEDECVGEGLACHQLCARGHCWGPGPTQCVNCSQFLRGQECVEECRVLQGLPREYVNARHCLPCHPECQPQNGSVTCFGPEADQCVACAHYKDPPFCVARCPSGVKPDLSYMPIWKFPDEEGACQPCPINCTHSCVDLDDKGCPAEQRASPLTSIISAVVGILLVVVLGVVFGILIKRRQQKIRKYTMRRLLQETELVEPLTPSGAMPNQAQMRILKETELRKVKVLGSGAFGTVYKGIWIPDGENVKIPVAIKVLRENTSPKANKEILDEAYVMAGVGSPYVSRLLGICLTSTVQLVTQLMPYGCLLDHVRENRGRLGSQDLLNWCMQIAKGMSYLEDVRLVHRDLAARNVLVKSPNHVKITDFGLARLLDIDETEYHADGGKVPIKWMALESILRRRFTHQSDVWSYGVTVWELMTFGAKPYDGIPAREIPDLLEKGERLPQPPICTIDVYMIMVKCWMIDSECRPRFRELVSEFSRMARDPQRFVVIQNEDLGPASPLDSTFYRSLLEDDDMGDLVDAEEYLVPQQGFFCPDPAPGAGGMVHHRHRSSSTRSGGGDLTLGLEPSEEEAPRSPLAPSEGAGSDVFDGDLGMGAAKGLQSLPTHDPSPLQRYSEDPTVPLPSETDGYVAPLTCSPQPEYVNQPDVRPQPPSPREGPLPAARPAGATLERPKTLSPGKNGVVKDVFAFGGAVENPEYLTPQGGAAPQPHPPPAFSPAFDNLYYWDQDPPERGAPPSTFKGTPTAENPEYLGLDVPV
Data set [4] relates to NCI-H1975. Nature of the data set: Antiproliferative activity against human NCI-H1975 cells harboring EGFR T790M/L858R double mutant after 72 hrs by EZ-Cytox assay. The class given is functional, cell-based. The settings on record: NCI-H1975, 72 h.
Data set [5] concerns PC-9. The experiment in a line: Antiproliferative activity against human PC9 cells harboring EGFR exon-19 del mutant after 72 hrs by EZ-Cytox assay. The class given is functional, cell-based. The settings on record: PC-9, 72 h.
Data set [6] addresses T1, CYP1A2 (Homo sapiens, UniProt P05177).
T1 sequence (P05177 whole entry): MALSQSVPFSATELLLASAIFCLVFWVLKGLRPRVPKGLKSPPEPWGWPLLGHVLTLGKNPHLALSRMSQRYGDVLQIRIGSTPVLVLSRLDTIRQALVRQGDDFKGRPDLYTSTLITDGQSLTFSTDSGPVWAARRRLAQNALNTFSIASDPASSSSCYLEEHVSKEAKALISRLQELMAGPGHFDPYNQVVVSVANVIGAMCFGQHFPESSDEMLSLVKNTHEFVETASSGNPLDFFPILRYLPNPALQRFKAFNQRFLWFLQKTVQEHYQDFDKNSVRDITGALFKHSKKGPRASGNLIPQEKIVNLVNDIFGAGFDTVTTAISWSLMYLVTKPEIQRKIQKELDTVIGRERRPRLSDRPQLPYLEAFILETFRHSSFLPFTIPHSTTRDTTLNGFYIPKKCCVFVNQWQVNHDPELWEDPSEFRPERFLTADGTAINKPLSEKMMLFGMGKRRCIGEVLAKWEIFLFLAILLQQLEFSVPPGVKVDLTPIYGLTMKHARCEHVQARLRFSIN
The experiment in a line: Inhibition of CYP1A2 in human liver microsomes assessed as residual activity at 10 uM using phenacetin as substrate preincubated for 5 mins followed by NADPH addition and measured after 15 mins by LC-MS/MS analysis relative to control. In kind it is ADME. To be noted: probe phenacetin, read-out: Activity.

Data set [7] has as its target T2, CYP2A6 (Homo sapiens, UniProt P11509).
T2 sequence (P11509 whole entry): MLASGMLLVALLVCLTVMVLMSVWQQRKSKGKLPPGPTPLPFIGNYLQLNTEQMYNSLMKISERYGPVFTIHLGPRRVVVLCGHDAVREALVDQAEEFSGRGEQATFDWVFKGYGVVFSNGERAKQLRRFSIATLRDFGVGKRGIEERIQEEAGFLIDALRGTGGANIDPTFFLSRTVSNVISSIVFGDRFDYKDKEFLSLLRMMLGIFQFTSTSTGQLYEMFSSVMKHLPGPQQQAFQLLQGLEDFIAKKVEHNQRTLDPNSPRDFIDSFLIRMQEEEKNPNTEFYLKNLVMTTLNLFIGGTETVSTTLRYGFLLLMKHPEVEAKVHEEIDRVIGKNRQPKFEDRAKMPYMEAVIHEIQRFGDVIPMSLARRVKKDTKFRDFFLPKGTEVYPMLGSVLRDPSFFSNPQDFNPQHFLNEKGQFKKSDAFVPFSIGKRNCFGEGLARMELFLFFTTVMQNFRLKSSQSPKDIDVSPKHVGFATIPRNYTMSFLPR
Nature of the data set: Inhibition of CYP2A6 in human liver microsomes assessed as residual activity at 10 uM using coumarin as substrate preincubated for 5 mins followed by NADPH addition and measured after 15 mins by LC-MS/MS analysis relative to control. The class given is ADME. The settings on record: probe coumarin, read-out: Activity.

Data set [8] concerns the target T3, CYP2B6 (Homo sapiens, UniProt P20813).
T3 sequence (P20813 whole entry): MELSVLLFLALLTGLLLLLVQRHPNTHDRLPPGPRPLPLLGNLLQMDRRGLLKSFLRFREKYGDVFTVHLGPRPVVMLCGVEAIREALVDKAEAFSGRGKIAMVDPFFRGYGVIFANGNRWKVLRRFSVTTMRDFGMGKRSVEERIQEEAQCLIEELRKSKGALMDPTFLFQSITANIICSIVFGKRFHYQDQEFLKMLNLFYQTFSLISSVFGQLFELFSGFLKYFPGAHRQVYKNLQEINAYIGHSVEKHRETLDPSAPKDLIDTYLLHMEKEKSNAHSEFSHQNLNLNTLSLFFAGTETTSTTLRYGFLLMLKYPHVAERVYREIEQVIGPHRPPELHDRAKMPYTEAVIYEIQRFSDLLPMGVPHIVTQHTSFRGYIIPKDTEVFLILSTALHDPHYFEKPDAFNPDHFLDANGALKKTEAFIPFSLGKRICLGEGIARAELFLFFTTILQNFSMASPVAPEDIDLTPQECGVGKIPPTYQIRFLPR
The experiment in a line: Inhibition of CYP2B6 in human liver microsomes assessed as residual activity at 10 uM using bupropion as substrate preincubated for 5 mins followed by NADPH addition and measured after 15 mins by LC-MS/MS analysis relative to control. The settings on record: probe bupropion, read-out: Activity. The class given is ADME.

Data set [9] deals with T4, CYP2C8 (Homo sapiens, UniProt P10632).
T4 sequence (P10632 whole entry): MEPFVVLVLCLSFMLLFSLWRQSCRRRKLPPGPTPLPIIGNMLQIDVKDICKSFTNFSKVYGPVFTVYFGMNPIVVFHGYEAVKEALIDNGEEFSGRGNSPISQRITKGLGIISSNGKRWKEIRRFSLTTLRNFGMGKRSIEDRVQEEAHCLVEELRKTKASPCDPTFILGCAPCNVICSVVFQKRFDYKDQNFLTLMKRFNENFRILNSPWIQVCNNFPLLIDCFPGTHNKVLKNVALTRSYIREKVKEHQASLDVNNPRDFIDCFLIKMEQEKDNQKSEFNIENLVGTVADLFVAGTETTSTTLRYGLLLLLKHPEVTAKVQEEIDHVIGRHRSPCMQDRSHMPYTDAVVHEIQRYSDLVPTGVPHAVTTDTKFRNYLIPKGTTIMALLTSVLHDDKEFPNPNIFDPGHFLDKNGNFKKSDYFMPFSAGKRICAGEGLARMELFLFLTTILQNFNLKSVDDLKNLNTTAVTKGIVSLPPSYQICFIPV
The experiment in a line: Inhibition of CYP2C8 in human liver microsomes assessed as residual activity at 10 uM using amiodiaquine as substrate preincubated for 5 mins followed by NADPH addition and measured after 15 mins by LC-MS/MS analysis relative to control. The class given is ADME. To be noted: probe amiodiaquine, read-out: Activity.

The target in data set [10] is CYP2C9 (Homo sapiens, UniProt P11712). The experiment in a line: Inhibition of CYP2C9 in human liver microsomes assessed as residual activity at 10 uM using tolbutamide as substrate preincubated for 5 mins followed by NADPH addition and measured after 15 mins by LC-MS/MS analysis relative to control. The class given is ADME. The settings on record: probe tolbutamide, read-out: Activity.
CYP2C9, sequence (P11712 whole entry): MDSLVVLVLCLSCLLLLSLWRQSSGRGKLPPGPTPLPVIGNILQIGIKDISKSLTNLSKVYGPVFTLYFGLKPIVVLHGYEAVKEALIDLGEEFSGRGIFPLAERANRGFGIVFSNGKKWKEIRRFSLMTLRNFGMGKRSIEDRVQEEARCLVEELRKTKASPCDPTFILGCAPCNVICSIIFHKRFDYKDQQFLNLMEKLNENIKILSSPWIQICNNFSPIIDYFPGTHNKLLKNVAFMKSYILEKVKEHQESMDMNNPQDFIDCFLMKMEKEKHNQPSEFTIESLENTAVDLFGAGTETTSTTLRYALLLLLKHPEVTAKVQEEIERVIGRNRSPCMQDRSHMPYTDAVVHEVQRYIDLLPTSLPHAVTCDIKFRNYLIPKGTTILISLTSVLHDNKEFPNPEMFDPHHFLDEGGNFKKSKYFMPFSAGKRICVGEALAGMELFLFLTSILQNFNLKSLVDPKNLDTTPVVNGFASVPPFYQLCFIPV

For data set [11], the target named is CYP2C19 (Homo sapiens, UniProt P33261). Nature of the data set: Inhibition of CYP2C19 in human liver microsomes assessed as residual activity at 10 uM using S-mephenytoin as substrate preincubated for 5 mins followed by NADPH addition and measured after 15 mins by LC-MS/MS analysis relative to control. In kind it is ADME. To be noted: probe S-mephenytoin, read-out: Activity.

The target in data set [12] is CYP2E1 (Homo sapiens, UniProt P05181). The experiment in a line: Inhibition of CYP2E1 in human liver microsomes assessed as residual activity at 10 uM using chlorzoxazone as substrate preincubated for 5 mins followed by NADPH addition and measured after 15 mins by LC-MS/MS analysis relative to control. The class given is ADME. The settings on record: probe chlorzoxazone, read-out: Activity.

For data set [13], the target named is CYP3A4 (Homo sapiens, UniProt P08684). Nature of the data set: Inhibition of CYP3A4 in human liver microsomes assessed as residual activity at 10 uM using midazolam as substrate preincubated for 5 mins followed by NADPH addition and measured after 15 mins by LC-MS/MS analysis relative to control. To be noted: probe midazolam, read-out: Activity. In kind it is ADME.
CYP3A4, sequence (P08684 whole entry): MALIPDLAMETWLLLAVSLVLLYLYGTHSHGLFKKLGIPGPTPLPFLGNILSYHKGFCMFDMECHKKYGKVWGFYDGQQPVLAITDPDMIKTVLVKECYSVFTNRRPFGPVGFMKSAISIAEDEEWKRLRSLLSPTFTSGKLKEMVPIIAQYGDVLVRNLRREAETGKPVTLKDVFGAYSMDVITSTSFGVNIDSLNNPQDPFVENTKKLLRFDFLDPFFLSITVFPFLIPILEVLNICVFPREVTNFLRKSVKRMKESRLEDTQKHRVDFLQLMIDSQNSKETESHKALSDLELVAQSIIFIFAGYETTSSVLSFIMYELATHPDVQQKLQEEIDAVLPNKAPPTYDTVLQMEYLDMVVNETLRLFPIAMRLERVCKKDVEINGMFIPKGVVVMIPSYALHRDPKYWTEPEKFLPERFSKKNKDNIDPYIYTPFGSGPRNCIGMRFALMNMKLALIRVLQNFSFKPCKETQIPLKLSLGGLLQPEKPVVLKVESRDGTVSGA

Data set [14] deals with A549. Nature of the data set: Antiproliferative activity against human A549 cells harboring wild-type EGFR after 72 hrs by EZ-Cytox assay. The class given is ADME, cell-based. The settings on record: A549, 72 h.
Data set [15] relates to SK-BR-3. Nature of the data set: Antiproliferative activity against HER2-dependant human SKBR3 cells after 72 hrs by EZ-Cytox assay. In kind it is ADME, cell-based. To be noted: SK-BR-3, 72 h.
Data set [16] in a line: Safety index, ratio of compound IC50 to afatinib IC50 for antiproliferative activity against HER2-dependant human SKBR3 cells. The class given is cell-based. To be noted: SK-BR-3 cells (HER2-dependent), read-out: Ratio IC50.
The subject of data set [17] is HepG2. Nature of the data set: Cytotoxicity against human HepG2 cells after 24 hrs by LDH release assay. In kind it is cell-based. The settings on record: HepG2, 24 h.

SMILES strings stand for the structures.

Epidermal growth factor receptor (Homo sapiens, UniProt P00533), sequence (P00533 whole entry): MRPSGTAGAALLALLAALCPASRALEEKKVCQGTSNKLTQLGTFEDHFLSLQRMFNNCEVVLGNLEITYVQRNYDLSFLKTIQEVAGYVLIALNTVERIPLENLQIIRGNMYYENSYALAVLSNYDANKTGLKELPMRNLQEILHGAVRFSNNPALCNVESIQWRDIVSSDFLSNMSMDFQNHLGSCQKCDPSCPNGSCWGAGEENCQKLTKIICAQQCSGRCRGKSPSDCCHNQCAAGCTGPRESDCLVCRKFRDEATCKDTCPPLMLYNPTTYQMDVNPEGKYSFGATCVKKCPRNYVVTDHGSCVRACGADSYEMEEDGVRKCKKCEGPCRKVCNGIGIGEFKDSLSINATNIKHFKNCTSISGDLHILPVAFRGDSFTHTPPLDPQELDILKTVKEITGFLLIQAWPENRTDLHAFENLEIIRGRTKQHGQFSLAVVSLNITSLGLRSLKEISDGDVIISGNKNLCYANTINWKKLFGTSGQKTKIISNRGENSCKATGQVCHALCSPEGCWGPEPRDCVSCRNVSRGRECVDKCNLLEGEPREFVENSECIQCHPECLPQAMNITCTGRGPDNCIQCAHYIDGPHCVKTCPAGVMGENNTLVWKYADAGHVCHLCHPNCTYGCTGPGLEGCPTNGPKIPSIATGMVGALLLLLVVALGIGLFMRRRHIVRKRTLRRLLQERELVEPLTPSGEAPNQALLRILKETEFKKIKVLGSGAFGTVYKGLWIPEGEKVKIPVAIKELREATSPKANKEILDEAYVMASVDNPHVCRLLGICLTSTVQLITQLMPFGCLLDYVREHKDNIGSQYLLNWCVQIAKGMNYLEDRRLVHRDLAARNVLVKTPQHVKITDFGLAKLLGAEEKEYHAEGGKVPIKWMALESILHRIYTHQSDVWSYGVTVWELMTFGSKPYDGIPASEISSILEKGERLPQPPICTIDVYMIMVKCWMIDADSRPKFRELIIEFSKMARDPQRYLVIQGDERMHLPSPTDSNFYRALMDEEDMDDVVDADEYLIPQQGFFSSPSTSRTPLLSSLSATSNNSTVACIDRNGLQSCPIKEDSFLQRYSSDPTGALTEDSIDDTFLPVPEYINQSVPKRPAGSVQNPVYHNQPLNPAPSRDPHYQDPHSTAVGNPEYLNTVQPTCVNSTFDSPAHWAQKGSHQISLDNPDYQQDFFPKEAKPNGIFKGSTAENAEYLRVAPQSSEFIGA
Epidermal growth factor receptor (Homo sapiens, UniProt P00533, L858R/T790M), sequence (P00533 25-1210 T790M/L858R limits assumed): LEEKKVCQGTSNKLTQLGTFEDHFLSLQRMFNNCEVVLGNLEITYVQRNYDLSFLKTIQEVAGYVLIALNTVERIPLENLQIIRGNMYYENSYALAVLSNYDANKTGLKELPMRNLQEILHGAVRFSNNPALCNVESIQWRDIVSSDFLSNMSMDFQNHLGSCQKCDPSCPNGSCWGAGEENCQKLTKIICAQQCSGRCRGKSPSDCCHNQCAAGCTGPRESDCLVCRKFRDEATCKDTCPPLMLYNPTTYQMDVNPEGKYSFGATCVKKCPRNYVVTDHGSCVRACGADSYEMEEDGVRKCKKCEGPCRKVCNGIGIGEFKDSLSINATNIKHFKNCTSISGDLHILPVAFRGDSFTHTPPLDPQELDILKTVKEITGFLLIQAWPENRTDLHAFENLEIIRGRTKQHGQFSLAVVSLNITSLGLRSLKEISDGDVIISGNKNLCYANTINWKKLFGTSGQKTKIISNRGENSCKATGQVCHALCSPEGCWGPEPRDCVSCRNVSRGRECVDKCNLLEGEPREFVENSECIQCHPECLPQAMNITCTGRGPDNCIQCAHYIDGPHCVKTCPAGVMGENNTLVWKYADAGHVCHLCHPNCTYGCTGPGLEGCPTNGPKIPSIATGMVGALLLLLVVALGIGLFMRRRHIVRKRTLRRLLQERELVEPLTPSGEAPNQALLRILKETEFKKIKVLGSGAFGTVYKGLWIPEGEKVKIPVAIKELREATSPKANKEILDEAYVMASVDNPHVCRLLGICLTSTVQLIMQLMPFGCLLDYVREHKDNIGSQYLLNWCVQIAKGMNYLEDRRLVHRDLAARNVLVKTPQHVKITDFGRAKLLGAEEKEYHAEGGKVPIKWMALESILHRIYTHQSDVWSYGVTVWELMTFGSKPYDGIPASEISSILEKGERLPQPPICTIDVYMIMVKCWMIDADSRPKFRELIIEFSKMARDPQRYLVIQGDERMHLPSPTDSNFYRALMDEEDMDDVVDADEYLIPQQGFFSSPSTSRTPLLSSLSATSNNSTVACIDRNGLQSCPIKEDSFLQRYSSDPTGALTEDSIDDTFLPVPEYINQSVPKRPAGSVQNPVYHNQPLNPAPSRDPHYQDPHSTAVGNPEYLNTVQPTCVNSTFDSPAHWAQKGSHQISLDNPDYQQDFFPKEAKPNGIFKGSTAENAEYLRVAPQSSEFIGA

Turning to `C=CC(=O)Nc1cc2c(Nc3ccc(F)c(Cl)c3)ncnc2cc1OCc1cn(Cc2ccccc2F)nn1`, the IC50 in [1] came out at 65 nM; in [2], 12 nM; in data set [3] it was 78 nM; in data set [4] it was 619 nM; in data set [5], 1.2 nM.
As for `C=CC(=O)Nc1cc2c(Nc3ccc(F)c(Cl)c3)ncnc2cc1OCc1cn(-c2ccccc2)nn1`, the IC50 in data set [1] is 74 nM; in [2] it was 26 nM; in [3], 471 nM; in [4], 4780 nM; in data set [5], 32 nM.
On to `CC(=O)N1CCN(c2ccc(OCC3COC(Cn4ccnc4)(c4ccc(Cl)cc4Cl)O3)cc2)CC1` (configuration not stated) [KETOCONAZOLE], for which the activity at 0.25 h, 10 µM in data set [6] is 92.5%; in data set [7], 91.8%; in data set [8] it was 84.1%; in data set [9], 95.6%; in data set [10] it was 85%; in data set [11] it was 85.8%. Also, the values for the activity at 0.25 h, 10 µM in data set [12] and in [13] were 98.1% and 35.7%, respectively.
`C#CCOc1cc2ncnc(Nc3ccc(F)c(Cl)c3)c2cc1NC(=O)C=C`: the IC50 is 1590 nM in data set [4], 2.9 nM in data set [5], more than 10000 nM in data set [14] and 106 nM in data set [15].
On to `CN(C)C/C=C/C(=O)Nc1cc2c(Nc3ccc(F)c(Cl)c3)ncnc2cc1O[C@H]1CCOC1` [AFATINIB], for which the IC50 in [4] stood at 131 nM; in [5], 0.1 nM; in [14] it was 3770 nM; in data set [15] it was 1.2 nM.
For `C=CC(=O)Nc1cc2c(Nc3ccc(F)c(Cl)c3)ncnc2cc1OCc1cn(Cc2ccc(OC)cc2)nn1`, the IC50 in [1] was 41 nM; in data set [2], 5 nM; in [3], 212 nM; in [4], 701 nM; in data set [5] it was 1.1 nM.
Take `C=CC(=O)Nc1cc2c(Nc3ccc(F)c(Cl)c3)ncnc2cc1OCc1cn(CCCN2CCOCC2)nn1`: the IC50 turned out to be 12 nM in data set [1]; 4 nM in data set [2]; 54 nM in data set [3]; 341 nM in data set [4]; 0.6 nM in data set [5]; 8160 nM in [14]. Also, the IC50 in data set [15] was found to be 19 nM.
On to `C=CC(=O)Nc1cc2c(Nc3ccc(F)c(Cl)c3)ncnc2cc1OCc1cn(Cc2ccc(C)cc2)nn1`, for which the IC50 came out at 105 nM in [1]; 15 nM in data set [2]; 158 nM in data set [3]; 417 nM in [4]; 1.3 nM in data set [5]; 737 nM in data set [14]. In data set [15], this molecule gave an IC50 of 216 nM. Besides, the selectivity ratio in [16] was more than 95.
The molecule `COC(=O)C1=C(C)NC(C)=C(C(=O)OC)C1c1ccccc1[N+](=O)[O-]` [NIFEDIPINE] displayed an IC50 in [17] of 9400 nM.
With `C=CC(=O)Nc1cc2c(Nc3ccc(F)c(Cl)c3)ncnc2cc1OCc1cn(CCCO)nn1`, the IC50 in [1] is 12 nM; in data set [2] it was 4 nM; in data set [3], 67 nM; in data set [4] it was 1370 nM; in data set [5], 1.5 nM.
With `C=CC(=O)Nc1cc2c(Nc3ccc(F)c(Cl)c3)ncnc2cc1OCc1cn(Cc2ccccc2)nn1`, the IC50 in data set [1] was determined as 39 nM; in data set [2], 8 nM; in data set [3], 90 nM; in [4], 808 nM; in [5] it was 1.2 nM.
With `C=CC(=O)Nc1cc2c(Nc3ccc(F)c(Cl)c3)ncnc2cc1OCc1cn(CCc2ccccc2)nn1`, the IC50 came to 41 nM in [1]; 12 nM in [2]; 448 nM in data set [3]; 2090 nM in data set [4]; 3.6 nM in [5].

The values are drawn from ChEMBL document CHEMBL4371069, “Click chemistry for improvement in selectivity of quinazoline-based kinase inhibitors for mutant epidermal growth factor receptors” (Bioorg Med Chem Lett, 2019).
